Results: paper PMC6406907, “A H2AX–CARP-1 Interaction Regulates Apoptosis Signaling Following DNA Damage” (Cancers, 2019)

How the values were obtained:
[1] = test system: CARP-1, phospho-JNK1/2, phospho-H2AX, PARP; assay: Western blot of CARP-1, phospho-JNK1/2, γH2AX, cleaved PARP in MDA-MB-468; assay type: cell-based, human; details: for expression of CARP-1, phospho-JNK1/2, phospho-H2AX / PARP cleavage: MDA-MB-468, WB; for PARP cleavage: robust cleaved PARP over 12-h treatment period; for CARP-1 levels and γH2AX: MDA-MB-468, WB / IF
Protocol: (§1) Logarithmically growing cells were either untreated or treated with different agents for various time periods. The cells were lysed to prepare protein extracts. IP was carried out by incubating approximately 1 mg of the protein lysate with appropriate antibodies. The immunoprecipitates were then analyzed by SDS-PAGE, followed by WB with respective, interacting protein. For Gst-pulldown, Gst-H2AX or various His-TAT-HA-tagged CARP-1 peptides were generated in Escherichia coli (E. coli) BL21 cells essentially as described by us previously. Briefly, the competent E. coli BL-21 (DE3) pLysS cells were transformed separately with various recombinant pGEX-4T-1 or pTAT-HA constructs. The transformed cells were then subjected to selection by combined presence of ampicillin and chloramphenicol; various isolates for each transformation were obtained and bacterial lysates were characterized for expression of fusion peptides. Cells from each isolate were grown in 4 mL of LB medium containing ampicillin only until the optical density (OD)600 reached 0.4–0.8. Expression of fusion peptides was induced over 2–4 h incubation periods after Isopropyl β-D-1-thiogalactopyranoside (IPTG) addition. The cells were harvested, and pellets were stored at −80 °C overnight. The cell pellets were then lysed in 100–400 μL of bacterial protein extraction reagent (BPER) buffer (Thermo Scientific, Waltham, MA, USA, Cat# 78243) containing 2 μL/mL of 10 units/μL DNAse I (Boehringer Mannheim, Fremont, CA, USA, Cat # 776–785), and supernatant checked for expression of respective fusion peptides by WB. Following confirmation of expression, 5–20 μL of lysate expressing Gst fusion protein was first incubated with 20 μL of precleared glutathione sepharose in a final volume of 100 μL at 4 °C for 2 h with constant rotation. The sepharose beads were spun at 800× g for 2 min, and the pellet was washed 2–4 times with 100–200 μL of RIPA buffer (20 mM Tris-HCl (pH 7.5), 150 mM NaCl, 1 mM Na2EDTA, 1 mM EGTA, 1% NP-40, 1% sodium deoxycholate, 2.5 mM sodium pyrophosphate, 1 mM β-glycerophosphate, 1 mM Na3VO4, 1 µg/mL leupeptin) with 0.5 M NaCl. The beads were spun again as above, and mixed with 5–20 μL of E. coli lysate expressing His-TAT-HA CARP-1 peptides. The reactions were incubated further at 4 °C for 2 h with constant rotation. The peptide-bound sepharose beads were pelleted and washed with 100–200 μL of RIPA buffer with 0.1 M NaCl for 2–4 washes. In some cases, additional washes with 0.05 M NaCl buffer were carried out. After the final wash, the sepharose–protein complexes were spun, and then re-suspended in SDS loading buffer for electrophoresis on 12–15% SDS PAGE, followed by WB with appropriate antibodies.
Here, we utilized human TNBC MDA-MB-468 and human cervical cancer HeLa cells to conduct an MTT-based dose-response analysis using Adriamycin and CFM compounds. […] Since Adriamycin, CFM-4, and CFM-4.16 have molecular masses of 543.3, 404.9, and 440.3, respectively, we chose to use an equimolar dose of each compound in the MTT assays. […] Prior reports established that phosphorylation of H2AX at serine 139 (γ-H2AX) is involved in DNA damage repair and apoptotic signaling by ATM/ATR and JNKs, respectively. Next, the MDA-MB-468, HeLa, and the kidney cancer UOK 262 cells were treated with a 10 μM dose of the CFM-4.16 or Adriamycin for various time periods. The cell lysates from the control, untreated, and treated cells were analyzed by WB for expression of CARP-1, phospho-JNK1/2, phospho-H2AX, and poly ADP ribose polymerase (PARP) proteins. […] The H2AX activation is also indicative of DNA damage and involves pro-apoptotic JNKs. Our data in Figure 1C and Figure S1B,C (Supplementary Materials) also show activation of JNKs; however, a robust JNK activation is co-incident with H2AX phosphorylation following treatments with Adriamycin or CFM-4.16. […]

[2] = test system: CARP-1 and γH2AX; assay: WB/IF of CARP-1 and γH2AX in HCC827; assay type: cell-based, human; details: for CARP-1 and γH2AX increase after knock-down of CARP-1: HCC827, CARP-1 knock-down; for CARP-1 levels and γH2AX: HCC827, WB / IF
Protocol: as §1
Cells were plated onto chamber slides one day before treatment. […]

| SMILES | expression of CARP-1, phospho-JNK1/2, phospho-H2AX ([1]; 10 μM) | PARP cleavage ([1]; 10 μM) | CARP-1 levels and γH2AX [1] | CARP-1 and γH2AX increase after knock-down of CARP-1 [2] | CARP-1 levels and γH2AX [2] | H2AX activation ([1]; 10 μM Adriamycin, WB) | time of earliest stimulation of PARP cleavage ([1]; 10 μM, MDA-MB-468, "as early as") [h] | γH2AX ([1]; MDA-MB-468, Adriamycin alone, WB) |
| --- | --- | --- | --- | --- | --- | --- | --- | --- |
| O=C1N(Cc2ccccc2Cl)c2ccccc2C12NN=C(c1cccc(Cl)c1)S2 (stereo not shown) [CFM-4.16] | stimulated expression of CARP-1, phospho-JNK1/2, and phospho-H2AX in a time-dependent manner | provoked PARP cleavage in a time-dependent manner | robust increase in CARP-1 levels and γH2AX | abrogated CARP-1 and γH2AX increase | robust increase in CARP-1 levels and γH2AX | – | – | – |
| COc1cccc2c1C(=O)c1c(O)c3c(c(O)c1C2=O)C[C@@](O)(C(=O)CO)C[C@@H]3O[C@H]1C[C@H](N)[C@H](O)[C@H](C)O1 [Adriamycin, doxorubicin, reference compound] | stimulated expression of CARP-1, phospho-JNK1/2, and phospho-H2AX in a time-dependent manner | provoked PARP cleavage in a time-dependent manner | robust increase in CARP-1 levels and γH2AX | abrogated CARP-1 and γH2AX increase | robust increase in CARP-1 levels and γH2AX | robust at 12 h | 3 | robust increase in γH2AX |
